In US20040192774A1, “Method for improving the well-being of poultry by in-ovo injection of carnitine” (priority 2001, published 2004):

How the values were obtained:
[1] = system: Cobb-500 strain of broiler chicken; assay: Floor pen studies: broiler performance after day 18 in-ovo carnitine injection (or carnitine-supplemented feed); type: in vivo; settings: for FCR 0-49 (feed conversion ratio): 0 to 49 days post-hatch; for FCR 0-70 (feed conversion ratio): 0 to 70 days post-hatch; for FCR 49-70 (feed conversion ratio): 49 to 70 days post-hatch
Protocol: (§1) Approximately 4000 embryonated, freshly laid eggs of Cobb-500 strain of broiler chicken (obtained from Cobb Vantress of Siloam Springs, Ark.) were pre-selected as to uniformity of weight and originated from breeder hens at approximately 35-45 weeks of the production cycle. The eggs were kept in a climatised incubation chamber at 37° C. up to day 18 post-laying. Eggs were then injected with either 100 μl sterile physiological saline or 150 μg carnitine comprised in 100 μl sterile physiological saline on day 18 of incubation. Incubation was then carried on until hatch. Carnitine was commercially available L-Carnitine (trade name: Carnifeed, Lonza Inc., 100% L-Carnitine). The eggs were injected with the automatic inovoject-system of Embrex, Inc. (maximum capacity: 50,000 eggs per hour). The system punches a tiny hole into the egg shell and then lowers a needle through the hole which delivers the therapeutic product to the embryo. Needles are automatically sanitized after each injection and provide for 100% inoculation.
(§2) To assess the effect of the carnitine injection carried out according to Example 1, birds were selected at random from the birds originating from the Example 1 and raised up to 70 days. The birds were either placed in a commercial production environment (12 floor pens/trt; 50 birds/pen) or in metabolic chambers with normal feed but subnormal, controlled oxygen supply. The latter is an accepted testing model for trigger the ascites condition in predispositioned birds. Approximately 2400 chicks were allocated to floor pen groups as described below. Three hundred birds were selected at random and incubated in the metabolic chambers. Standard feeds were applied (similar to diets fed to commercial broiler chickens); and nutrient specifications are shown below. Feeds were mixed according to accepted mixing procedures such that treatment diets only differed in presence or absence of carnitine.
Data were analyzed using the General Linear Model procedure of SAS (SAS, 1985). When a significant F statistic was noted by ANOVA, treatment means were compared using least square analysis variance.
Data are only given where probability levels were p≦0.10. In general, carnitine effects, though not always being statistically significant at p<0.05, were consistent across trials.
Number of days post-hatch are indicated, e.g., BW21: Hatched chicks were grown for 21 days prior to measurement.
Mortality (M) is given as main effect mean in %. Number of days post-hatch are indicated, e.g., M21-49: percentage of death birds in the period of 21 to 49 days post-hatch.
Main effect means for feed conversion ratio (FCR, in grams of feed per gram of gain) is given. Number of days post-hatch are indicated, e.g., FCR 0-49: FCR in the period 0 to 49 days post-hatch that chicks were grown. For further control, the effect of in-ovo injection was compared to that of feeding the same diet, except that this diet was supplemented with carnitine at 200 ppm. Feed conversion was improved by carnitine treatment, either fed or injected. The results from both methods of carnitine administration were consistent.

[2] = system: Cobb-500 strain of broiler chicken; assay: Metabolic chamber studies: subnormal oxygen supply, ascites model; type: in vivo; settings: for HCT (hematocrit, packed cell volume) / AS (ascites score): day 14, 17% oxygen
Text: In the context of the present invention, the ascites score is understood as an empirical score from 0 to 3 indicating no to severe myocardial degeneration, based on the histopathological changes. Pathological changes in cardiac traits such as right ventricle weight and ascites heart ratio, defined as the ratio of right ventricle weight to total ventricle weight, are also taken into account.
A score of zero indicated minimal fat deposition and myofiber size variation, whereas a score of three indicated marked myocardial degeneration, highly abnormal cardiac traits and arteritis. A score of two was intermediate to the two extremes.
as §1, §2
Chicks were reared in air-tight chambers at subnormal oxygen supply simulating high altitude conditions. Feed and drinking water were provided for ad-libitum consumption. Chamber temperature was maintained at 30° C. the first 5 days of age and at 27.8° C. thereafter. Chambers were checked twice daily for bird mortality. Compressed dried air (7% relative humidity (rH), 17% oxygen) was delivered to chicks in the chamber via polyethylene tubes. It was necessary to provide low rH-air to the chick chamber in order to hold the chamber at rH below 75%. The concentration of oxygen and carbon dioxide in air exiting each bird's chamber was monitored every 15-25 minutes using Ametek oxygen (accuracy±0.2%) and carbon dioxide (accuracy±0.3%) analyzers, respectively.
Apart from body weight and body temperature at hatching (day 0; BW0, BT0), ascites score (AS) and hematocrit (packed cell volume; HCT) of chicks were determined at day 14. Blood (2 ml) was taken from the birds via venipuncture after which they were euthanized using CO2 and necropsies were performed.
Hearts were weighed whole and then dissected for determination of ascites heart ratio. Heart sections were taken and fixed in 10% buffered neutral formalin for histopathologic examinantion. The results of heart dissection and histopathological analysis were summarized in the ascites score.

[3] = fed: diet supplemented with carnitine at 200 ppm
[4] = injection of carnitine versus not injected

SMILES: C[N+](C)(C)CC(O)CC(=O)[O-] (stereo not drawn) [carnitine, 3-hydroxy-4-N-trimethylaminobutyric acid]
- BW 21 (body weight, main effect mean) ([1]; 150 μg carnitine in-ovo injected on day 18 of incubation, 21 days post-hatch): 719.9 g
- BW 49 (body weight, main effect mean) ([1]; 150 μg carnitine in-ovo injected on day 18 of incubation, 49 days post-hatch): 2940.7 g
- BW 70 (body weight, main effect mean) ([1]; 150 μg carnitine in-ovo injected on day 18 of incubation, 70 days post-hatch): 4168.1 g
- effect on feed conversion (in words) ([1]; carnitine treatment, either fed or injected): improved
- FCR 0-49 (feed conversion ratio) [1, 3]: 1.817 grams of feed per gram of gain
- FCR 0-70 (feed conversion ratio) [1, 3]: 2.331 grams of feed per gram of gain
- FCR 49-70 (feed conversion ratio) [1, 3]: 3.535 grams of feed per gram of gain
- FCR 0-49 (feed conversion ratio) ([1]; in-ovo injected day 18): 1.839 grams of feed per gram of gain
- FCR 0-70 (feed conversion ratio) ([1]; in-ovo injected day 18): 2.369 grams of feed per gram of gain
- FCR 49-70 (feed conversion ratio) ([1]; in-ovo injected day 18): 3.648 grams of feed per gram of gain
- WG 0-21 (weight gain, main effect mean) ([1]; in-ovo injected day 18, period 0-21 days post-hatch): 681.7 g
- M 0-70 (mortality, main effect mean) ([1]; in-ovo injected day 18, period 0 to 70 days post-hatch): 21.92%
- WG 21-49 (weight gain, main effect mean) ([1]; in-ovo injected day 18, period 21-49 days post-hatch): 2220.8 g
- M 21-49 (mortality, main effect mean) ([1]; in-ovo injected day 18, period 21 to 49 days post-hatch): 4.66%
- WG 49-70 (weight gain, main effect mean) ([1]; in-ovo injected day 18, period 49-70 days post-hatch): 1227.4 g
- M 49-70 (mortality, main effect mean) ([1]; in-ovo injected day 18, period 49 to 70 days post-hatch): 14.33%
- weight per 100 chicks started ([1]; in-ovo injected eggs, end of the 70 days period post-hatch): 32.54 kg
- mortality rate, cumulative ([1]; in-ovo injection, highest age): ~20%
- HCT (hematocrit, packed cell volume) ([2]; fed: L-carnitine at 200 ppm (coated on silica particles) via the feed): 30.25 Percent packed cells
- AS (ascites score) ([2]; fed: L-carnitine at 200 ppm (coated on silica particles) via the feed, scale from 0-3): 0.303
- BT 0 (body temperature at hatching) ([2]; in-ovo injected day 18, day 0): 101.73 ° F.
- BW 0 (body weight at hatching) ([2]; in-ovo injected day 18, day 0): 38.82 g
- HCT (hematocrit, packed cell volume) ([2]; in-ovo injected day 18): 30.04 Percent packed cells
- AS (ascites score) ([2]; in-ovo injected day 18, scale from 0-3 (no, slight, moderate, severe ascites lesions)): 0.277
- effect on ascites score (in words) [2, 4]: decreased
- effect on hematocrit (in words) [2, 4]: decreased
- increase of body weight at hatching ([2]; single injection of carnitine into incubating eggs, versus control): 0.5 g
